Measurements from patent US9170266B2, “Fluorescent probe” (THE UNIVERSITY OF TOKYO, priority 2011, dated 2015).
Where two headings read alike, the source gives them in different places.

Key:
[1] = pKa from pH-dependent absorbance in phosphate buffer
Procedure: The measurement was performed in a 0.1 M phosphate buffer (pH 9) containing 1% DMSO. pKa was obtained from the absorbance measured in a phosphate buffer (pH 9) by monophasic or biphasic curve fitting.

[2] = Fluorescence quantum yield in sodium phosphate buffer (pH 9), rhodamine B as fluorescence standard; format: physicochemical; settings: standard rhodamine B (Φfl=0.65) in ethanol
Procedure: (§1) Relationship between the fluorescence quantum yield and the oxidation potential of the benzene ring moiety of 2-Me TokyoMagenta synthesized in Example 1 mentioned above, as well as 2,4-DiMe TokyoMagenta, 2,5-DiMe TokyoMagenta, 2-OMe TokyoMagenta, 2-OMe-5-Me TokyoMagenta, and 2,5-OMe TokyoMagenta of (a) to (e) mentioned above was investigated. The fluorescence quantum yield was measured in a sodium phosphate buffer (pH 9) by using rhodamine B (Φfl=0.65) in ethanol as a control for fluorescence standard, and the oxidation potential was indicated with respect to a saturated calomel electrode (SCE) as a control. The dots plotted in FIG. 1 indicate the results of 2,4-DiMe TokyoMagenta, 2,5-DiMe TokyoMagenta, 2-OMe TokyoMagenta, 2-OMe-5-Me TokyoMagenta, and 2,5-OMe TokyoMagenta from the right, respectively. As clearly seen from the results shown in Table 1 and FIG. 1, the fluorescence quantum yields of the compounds changed depending on the oxidation potentials of the benzene ring moiety.
The fluorescence quantum yield was measured in a sodium phosphate buffer (pH 9) by using rhodamine B (Φfl=0.65) in ethanol as a control for fluorescence standard.

[3] = Oxidation potential of the benzene ring moiety; format: physicochemical; settings: vs saturated calomel electrode (SCE)
Procedure: as §1

[4] = Optical characteristics in 0.1 M phosphate buffer containing 1% DMSO, Table 3; format: physicochemical; settings: for λmax,fl: 0.1 M phosphate buffer (pH 9) containing 1% DMSO; for Φfl: 0.1 M phosphate buffer (pH 9), standard 2-Me TokyoMagenta (0.42); for λmax,abs pH 9 / λmax,abs pH 3: 0.1 M phosphate buffer containing 1% DMSO
Procedure: The measurement was performed in a 0.1 M phosphate buffer (pH 9) containing 1% DMSO. pKa was obtained from the absorbance measured in a phosphate buffer (pH 9) by monophasic or biphasic curve fitting. The quantum yield was obtained by using the quantum yield of 2-Me TokyoMagenta (0.42) in a 0.1 M phosphate buffer (pH 9) as the standard.

[5] = Optical characteristics (absorption, fluorescence, quantum yield) in phosphate buffer, Table 2; settings: phosphate buffer (pH 9)
Procedure: In the table, the items attached with the letter a were measured in a phosphate buffer (pH 9), and the item attached with the letter b was measured in a 0.1 M phosphate buffer containing 1% DMSO.

[6] = in ethanol; control for fluorescence standard; cited from earlier work
[7] = Evaluation of calcium fluorescent probes: absorption and fluorescence spectra at various free Ca2+ concentrations; format: binding; settings: for Φfl in 0 μM free [Ca2+] buffer / λabs in 0 μM free [Ca2+] buffer / λfl in 0 μM free [Ca2+] buffer / Φfl in 39 μM free [Ca2+] buffer / λabs in 39 μM free [Ca2+] buffer / λfl in 39 μM free [Ca2+] buffer / Kd: 30 mM MOPS buffer pH 7.2, 100 mM KCl, 10 mM EGTA, 22°C; for Kd: Ca2+; for Change of absorption spectra with Ca2+ ion concentration: free Ca2+ 0 to 39 μM; for Change of absorption spectra with Ca2+ ion concentration / Change of fluorescence intensity with Ca2+ ion concentration: pH 7.2, 22°C; for Change of fluorescence intensity with Ca2+ ion concentration: free Ca2+ 0 to 35/39 μM
Procedure: Fluorescence of Calcium TokyoMagenta obtained in Example 3 was measured in the presence of calcium ions of various concentrations. Free calcium ions at various concentrations (0, 0.017, 0.038, 0.065, 0.100, 0.150, 0.225, 0.351, 0.602, 1.35, and 35 μM) was added to the solution of Calcium TokyoMagenta (1 μM) dissolved in a 30 mM MOPS buffer (pH 7.2) containing 100 mM potassium chloride and 10 mM EGTA, and the fluorescence spectrum was measured at 22° C. (excitation wavelength: 550 nm).
The fluorescent probes prepared in Examples 13 and 14 were evaluated. Ca^2+-dependent changes of absorption spectra and fluorescence spectra of CaTM-1 (a) and CaTM-2 (b) were measured in a 30 mM 3-(N-morpholino)propanesulfonic acid (MPOS) buffer (pH 7.2) containing 100 mM potassium chloride and 10 mM ethylene glycol tetraacetic acid (EGTA) at 22° C. in the presence of various concentrations of free Ca^2+ ions (0, 0.017, 0.038, 0.065, 0.100, 0.150, 0.225, 0.351, 0.602, 1.35, and 39 μM). […] Thus, it was confirmed that they functioned as a fluorescent probe for measuring calcium ions in a sample by using fluorescence.

A549 cells = test: Localization of probes in live A549 cells by fluorescence; format: cell-based; settings: live A549 cells loaded with the AM ester; hydrolysed in cell by esterase
Procedure: Among the photographs, (c) to (e) show Rhod-2 localized in the mitochondria. The fluorescence imaging was performed by incubating Rhod-2 AM (3 μM) with Mito Tracker Green FM (0.2 μM). […] The scale bars indicate 10 μm.
(§2) Change of calcium concentration induced by histamine in a HeLa cell was measured by using CaTM-2-AM or Rhod-2-AM. A HeLa cell loaded with 3 μM CaTM-2-AM ((a) to (d)) or Rhod-2-AM ((e) to (h)) in HBSS was stimulated with histamine (1 μM). Further, localization of CaTM-2-AM (a) and Rhod-2-AM (b) in live A549 cells loaded with each of them was investigated by measuring fluorescence.

[8] = tested on: neuronal action potential; test: Continuous calcium ion imaging with patch clamping in a cell membrane adhered state; format: cell-based; settings: fluorescence method with simultaneous patch clamping
Excerpt: The result of continuous imaging of calcium ions performed by the patch clamping method in a cell membrane adhered state is shown in FIG. 11.

HeLa cells = test: Histamine-induced calcium concentration change in HeLa cells; format: cell-based; settings: HeLa cells loaded with 3 μM AM ester in HBSS, histamine 1 μM; compared with Rhod-2
Procedure: FIG. 8b and FIG. 8c show fluorescence images obtained with CaTM-2 at the times indicated with ▾ in FIG. 8d, and FIG. 8f and FIG. 8g show fluorescence images obtained with Rhod-2 at the times indicated with ▾ in FIG. 8h. FIG. 8d and FIG. 8h show fluorescence change in individual cells specified in FIG. 8a and FIG. 8e, respectively. The scale bars indicate 30 μm.
as §2

[9] = 0.1 M phosphate buffer containing 1% DMSO

2-Me Ge-TM
pKa [1, 9]: 6.7

Cc1ccc(C2=C3C=CC(=O)C=C3[Si](C)(C)c3cc(O)ccc32)c(C)c1 [2,4-DiMe, 2,4-Dimethyl TokyoMagenta]
Φfl [2]: 0.41
Oxidation potential (V vs SCE) [3]: 2.08 V vs SCE

Cc1ccc(C)c(C2=C3C=CC(=O)C=C3[Si](C)(C)c3cc(O)ccc32)c1 [2,5-DiMe, 2,5-Dimethyl TokyoMagenta]
Φfl [2]: 0.44
Oxidation potential (V vs SCE) [3]: 1.98 V vs SCE

COc1ccc(OC)c(C2=C3C=CC(=O)C=C3[Si](C)(C)c3cc(O)ccc32)c1 [2,5-DiOMe, 2,5-Dimethoxy TokyoMagenta]
Φfl [2]: 0
Oxidation potential (V vs SCE) [3]: 1.26 V vs SCE

C[Si]1(C)C2=C(Cl)C(=O)C=CC2=C(c2ccccc2C(=O)O)c2ccc(O)c(Cl)c21 [2-COOH DCTM]
λmax,fl [4]: 607 nm
Φfl [4]: 0.48
λmax,abs pH 9 [4]: 591 nm

C[Si]1(C)C2=C(F)C(=O)C=CC2=C(c2ccccc2C(=O)O)c2ccc(O)c(F)c21 [2-COOH DFTM]
λmax,fl [4]: 596 nm
Φfl [4]: 0.54
λmax,abs pH 9 [4]: 581 nm

C[Si]1(C)C2=CC(=O)C=CC2=C(c2ccccc2C(=O)O)c2ccc(O)cc21 [2-COOH TM]
λmax,fl [4]: 598 nm
Φfl [4]: 0.38
λmax,abs pH 9 [4]: 582 nm

Cc1ccccc1C1=C2C=CC(=O)C(Cl)=C2[Si](C)(C)c2c1ccc(O)c2Cl [2-Me DCTM]
λmax,fl [4]: 607 nm
Φfl [4]: 0.48
λmax,abs pH 3 [4]: 477 nm
λmax,abs pH 9 [4]: 595 nm

Cc1ccccc1C1=C2C=CC(=O)C(F)=C2[Si](C)(C)c2c1ccc(O)c2F [2-Me DFTM]
λmax,fl [4]: 598 nm
Φfl [4]: 0.57
λmax,abs pH 3 [4]: 465 nm
λmax,abs pH 9 [4]: 583 nm

CC[Si]1(CC)C2=CC(=O)C=CC2=C(c2ccccc2C)c2ccc(O)cc21 [2-Me DiEtTM]
Φfl [5]: 0.48
λabs [5]: 582 nm
λfl [5]: 601 nm

Cc1ccccc1C1=C2C=CC(=O)C=C2[Si](C)(C)c2cc(O)ccc21 [2-Me TM, 2-Me TokyoMagenta]
λmax,fl [4]: 598 nm
Φfl [4]: 0.42
λmax,abs pH 3 [4]: 472 nm
λmax,abs pH 9 [4]: 582 nm
pKa [1, 9]: 6.8
pKa ([1]; from absorbance in phosphate buffer by monophasic or biphasic curve fitting): 6.8
Φfl [2]: 0.42
Φfl [5]: 0.42
λabs [5]: 582 nm
λfl [5]: 598 nm
Oxidation potential (V vs SCE) [3]: 2.19 V vs SCE

COc1ccccc1C1=C2C=CC(=O)C=C2[Si](C)(C)c2cc(O)ccc21 [2-OMe, 2-Methoxy TokyoMagenta]
Φfl [2]: 0.31
Oxidation potential (V vs SCE) [3]: 1.75 V vs SCE

COc1ccc(C)cc1C1=C2C=CC(=O)C=C2[Si](C)(C)c2cc(O)ccc21 [2-OMe-5-Me, 2-Methoxy-5-methyl TokyoMagenta]
Φfl [2]: 0.14
Oxidation potential (V vs SCE) [3]: 1.57 V vs SCE

CCN(CC)c1ccc2c(-c3ccccc3C(=O)O)c3ccc(=[N+](CC)CC)cc-3oc2c1.[Cl-] [rhodamine B]
Φfl of fluorescence standard [6]: 0.65

CaTM-1
Φfl in 0 μM free [Ca2+] buffer [7]: 0.066
λabs in 0 μM free [Ca2+] buffer [7]: 585 nm
λfl in 0 μM free [Ca2+] buffer [7]: 603 nm
Φfl in 39 μM free [Ca2+] buffer [7]: 0.37
λabs in 39 μM free [Ca2+] buffer [7]: 585 nm
λfl in 39 μM free [Ca2+] buffer [7]: 603 nm
Kd ([7]; read-out: Kd): 380 nM
Change of absorption spectra with Ca2+ ion concentration [7]: not changed
Change of fluorescence intensity with Ca2+ ion concentration [7]: fluorescence intensity was increased with increasing of Ca^2+ ion concentration

CaTM-2
Φfl in 0 μM free [Ca2+] buffer [7]: 0.024
λabs in 0 μM free [Ca2+] buffer [7]: 597 nm
λfl in 0 μM free [Ca2+] buffer [7]: 609 nm
Φfl in 39 μM free [Ca2+] buffer [7]: 0.39
λabs in 39 μM free [Ca2+] buffer [7]: 597 nm
λfl in 39 μM free [Ca2+] buffer [7]: 609 nm
Kd ([7]; read-out: Kd): 200 nM
Change of absorption spectra with Ca2+ ion concentration [7]: not changed
Change of fluorescence intensity with Ca2+ ion concentration [7]: fluorescence intensity was increased with increasing of Ca^2+ ion concentration
Intracellular localization (A549 cells): uniformly distributed in the cytoplasm
Detection of neuronal action potential via transient change of intracellular calcium ion concentration [8]: observed with sufficient sensitivity
Detection of calcium vibration induced by histamine stimulation (HeLa cells): more sharply detected the calcium vibration induced by histamine stimulation

Calcium TokyoMagenta
Kd ([7]; probe 1 μM, excitation 550 nm, read-out: Kd value): 250 nM
Change of fluorescence intensity with Ca2+ ion concentration [7]: Increase of the fluorescence intensity was observed with increase of the calcium ion concentration

Rhod-2 [reference compound]
Intracellular localization (A549 cells): accumulated in mitochondria
